Usually IC50 stands for the point on the concentration scale where inhibition reaches its midpoint.

Counter-ions that a name gives are not always drawn.

The assay relates to serotonin (5HT) uptake. The experiment in a line: [^3 H]-Serotonin Uptake in Rat Whole Brain and Hypothalamic Synaptosomes. It counts as biochemical, rat (male CR Wistar). Conditions: 50 nM [^3 H]-5HT, 37° C., 5 minutes, read-out: Inhibition of Serotonin Uptake, IC50. Here is the method:
[^3 H]-Serotonin Uptake in Rat Whole Brain and Hypothalamic Synaptosomes
A. Animals: Male CR Wistar rats (100-125 g).
1. Krebs-Henseleit Bicarbonate Buffer, pH 7.4 (KHBB):
Prior to use add to 200 ml, per assay:
Make a 4 liter batch, containing the following salts:
3. Sucrose solution: 0.32M sucrose containing 5 mM HEPES and 0.1 mM EDTA; pH to 7.3 using Tris base.
4. A 0.1 mM stock solution of serotonin creatinine SO4 is made up in 0.01N HCl. This is used to dilute the specific activity of the radiolabeled 5HT.
The final desired concentration of [^3 H]-5HT in the assay is 50 nM. The dilution factor is 0.8.
6. For most assays, a 0.5 mM stock solution of the test compound is made up initially in either 10 μl of glacial acetic acid, 100 μl DMSO or 10 μl of the recrystallization solvent, to which is added approximately 10 ml of distilled water. Compounds are initially screened in duplicate at 3 concentrations (10^-8, 10^-7 and 10^-6 M) made up in water.
43, 1114 (1984) and Dunkley, P. R., Jarvie, R. E., Heath, J. W., Kidd, G. J., Rostas, J. A. P. Brain Research 372, 115 (1986). Male Wistar rats are decapitated and the brain rapidly removed. […] The following procedures are performed on ice. Homogenization should be done with 4-5 up and down strokes at medium speeds (setting 4.5 to 5) to minimize synaptosome lysis.
Tubes are carefully removed, and the top layer and the top part of the middle (red) layer are discarded using a pasteur pipette. […] This is carefully removed, placed in a centrifuge tube, diluted with KHBB and spun at 21,000 g (13,000 rpm, Sorvall SS-34 rotor).
200 μl of the tissue suspension are added to each of 24 tubes (at a time) containing the 20 μl of vehicle or drug on ice. Three minutes later, 800 μl of KHBB containing [^3 H]-5HT are added, and the tubes are vortexed. […] Uptake is terminated by filtration through GF/B filter strips using a Brandel cell harvester (filter strips are presoaked in ice cold filtration buffer). Tubes are washed once with 5 ml of ice cold filtration buffer.
Turning to `N#Cc1n[nH]c2nc(N3CCNCC3)ccc12` [6-(1-Piperazinyl)-1H-pyrazolo[3,4-b]pyridine-3-carbonitrile], the IC50 amounted to 0.696 µM.
The same measure for `N#Cc1n[nH]c2nc(N3CCCNCC3)ccc12` [6-(Hexahydro-1H-1,4-diazepin-1-yl)-1H-pyrazolo[3,4-b]pyridine-3-carbonitril]: 0.349 µM; for `NC(=O)c1n[nH]c2nc(N3CCNCC3)ccc12` [6-(1-Piperazinyl)-1H-pyrazolo[3,4-b]pyridine-3-carboxamide hydrochloride hydrate]: 7.69 µM; for `CN1CCN(c2ccc3cn[nH]c3n2)CC1` [6-(4-Methyl-1-piperazinyl)-1H-pyrazolo[3,4-b]pyridine]: 8.26 µM.
Then `CN1CCN(c2ccc3c(C#N)n[nH]c3n2)CC1` [6-(4-Methyl-1-piperazinyl)-1H-pyrazolo[3,4-b]pyridine-3-carbonitrile], with 0.764 µM; and `CN1CCN(c2ccc3cnn(C)c3n2)CC1` [1-Methyl-6-(4-methyl-1-piperazinyl)-1H-pyrazolo[3,4-b]pyridine], with 3.43 µM.

The values above are taken from patent publication US5300498A, “6-piperazinyl-1H-pyrazolo[3,4-b]pyridine-3-carboxylic acids, esters, amides and related compounds” (Hoechst-Roussel Pharmaceuticals Incorporated, priority 1993, dated 1994).
